The numbers were not newly measured in publication PMC9788431, “Combination of Docking-Based and Pharmacophore-Based Virtual Screening Identifies Novel Agonists That Target the Urotensin Receptor” (Molecules, 2022), which cites them from elsewhere.

SMILES strings stand for the structures. Several values for one entry are separate records, joined by “and”; a condition that tells them apart may be missing. Identical values can stand only once. Positions of bridges follow the written chain, without caps; N, C: chain ends. Non-standard residues stand in square brackets, D forms with d. Residues, ends and D or L forms follow the SMILES beside them. Phe(4-I) = N[C@@H](Cc1ccc(I)cc1)C(=O)O

One may read the IC50 as the point on the concentration scale where inhibition reaches its midpoint. For orientation: EC50 means the concentration at which the effect is half-maximal.

The target in the first data set is T1, UT receptor (Homo sapiens, UniProt Q9UKP6).
T1 construct: SNAP-tag; expressed in transfected cells; host or cells: 293A8 (HEK293A stably transfected with the UT receptor); inferred, the calcium-assay paragraph names no cells
T1 sequence (Q9UKP6 1-389): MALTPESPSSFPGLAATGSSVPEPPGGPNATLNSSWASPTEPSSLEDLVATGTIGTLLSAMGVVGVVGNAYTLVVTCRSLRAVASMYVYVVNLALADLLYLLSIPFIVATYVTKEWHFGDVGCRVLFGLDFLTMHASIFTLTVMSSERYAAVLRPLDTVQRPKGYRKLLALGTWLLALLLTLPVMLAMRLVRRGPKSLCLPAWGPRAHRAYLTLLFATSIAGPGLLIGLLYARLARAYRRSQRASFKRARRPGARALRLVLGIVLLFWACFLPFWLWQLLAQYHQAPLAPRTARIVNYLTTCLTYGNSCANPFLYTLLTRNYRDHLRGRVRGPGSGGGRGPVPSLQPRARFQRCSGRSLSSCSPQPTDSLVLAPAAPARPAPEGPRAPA
More on the design: method as in ChEMBL database and others. The note with it: antagonist; Table S1 benchmarking ligands; ref ChEMBL database and others; cited from earlier work.
With `CN(CC(=O)N1CCCCC1CN1CCCC1)c1ccc(Cl)c(Cl)c1` (stereo not shown) [CHEMBL254154], the IC50 was 631 nM.
As for `CN(C)CCCOc1ccc(CN2CC[C@H](NC(=O)c3ccc(Cl)c(Cl)c3)C2)cc1` [CHEMBL366221], the IC50 was 170 nM.
Consider `O=C(N[C@H]1CCN(Cc2ccc(OC3CCNCC3)c(Br)c2)C1)c1ccc(Cl)c(Cl)c1` [CHEMBL495075], for which the IC50 was 4 nM.
On to `COc1ccc([C@@H](CCCN(C)S(=O)(=O)c2cccs2)N2Cc3c(cccc3N3CCNCC3)C2=O)cc1OC` [CHEMBL565416], for which the IC50 is 410 nM.
Turning to `COc1ccc([C@H](CCCNS(=O)(=O)c2cccs2)N2C(=O)c3cccc(N4CCN([C@H](C)c5ccccc5)CC4)c3C2=O)cc1OC` [CHEMBL565580], the IC50 was 260 nM.
For `COc1ccc([C@@H](CCCNS(=O)(=O)c2cccs2)N2C(=O)c3cccc(N4CCNCC4)c3C2=O)cc1OC` [CHEMBL566366], the IC50 was 500 nM.
With `CCN1CCN(c2cccc3c2C(=O)N([C@H](CCCNS(=O)(=O)c2cccs2)c2ccc(OC)c(OC)c2)C3=O)CC1` [CHEMBL566433], the IC50 was 150 nM.
As to `CCN1CCN(c2cccc3c2CN([C@H](CCCNC(=O)c2cccs2)c2ccc(OC)c(OC)c2)C3=O)CC1` [CHEMBL567075], the IC50 is 140 nM.
For `CCN1CCN(c2cccc3c2CN([C@H](CCCNS(=O)(=O)c2cccs2)c2ccc(OC)c(OC)c2)C3=O)CC1` [CHEMBL567713], the IC50 was 8 nM.
Consider `COc1ccc([C@@H](CCCNS(=O)(=O)c2cccs2)N2C(=O)c3cccc(N4CCN(C(C)C)CC4)c3C2=O)cc1OC` [CHEMBL567736], for which the IC50 was 150 nM.
As for `COc1ccc([C@@H](CCCNS(=O)(=O)c2c(C)n[nH]c2C)N2C(=O)c3cccc(N4CCN([C@H](C)c5ccccc5)CC4)c3C2=O)cc1OC` [CHEMBL567759], the IC50 is 47 nM.
`COc1ccc([C@@H](CCCNS(=O)(=O)c2cccs2)N2C(=O)c3cccc(N4CCN(C)CC4)c3C2=O)cc1OC` [CHEMBL567949]: the IC50 is 220 nM.
With `CCN1CCN(c2cccc3c2CN([C@H](CCCNCc2cccs2)c2ccc(OC)c(OC)c2)C3=O)CC1` [CHEMBL568123], the IC50 was 59 nM.
Turning to `COc1ccc([C@@H](CCCNS(=O)(=O)c2cccs2)N2C(=O)c3cccc(N4CCN([C@H](C)c5ccccc5)CC4)c3C2=O)cc1OC` [CHEMBL568165], the IC50 was 240 nM.
Turning to `COc1ccc([C@@H](CCCNS(=O)(=O)c2cccs2)N2Cc3c(cccc3N3CCN(C(C)C)CC3)C2=O)cc1OC` [CHEMBL568637], the IC50 is 53 nM.
Take `COc1ccc([C@@H](CCCNC(=O)c2cnoc2C)N2C(=O)c3cccc(N4CCN([C@H](C)c5ccccc5)CC4)c3C2=O)cc1OC` [CHEMBL568764]: the IC50 is 760 nM.
For `CCN1CCN(c2cccc3c2CN([C@H](CCCN(C)S(=O)(=O)c2cccs2)c2ccc(OC)c(OC)c2)C3=O)CC1` [CHEMBL571535], the IC50 is 88 nM.
Take `COc1ccc([C@@H](CCCN(C)S(=O)(=O)c2cccs2)N2Cc3c(cccc3N3CCN(C4CCC4)CC3)C2=O)cc1OC` [CHEMBL571537]: the IC50 is 510 nM.
Take `COc1ccc([C@@H](CCCN(C)S(=O)(=O)c2cccs2)N2Cc3c(cccc3N3CCN(C(C)C)CC3)C2=O)cc1OC` [CHEMBL578203]: the IC50 was 500 nM.
Regarding `CCN1CCN(c2cccc3c2CN([C@H](CCCNS(=O)(=O)c2c[nH]cn2)c2ccc(OC)c(OC)c2)C3=O)CC1` [CHEMBL578207], the IC50 is 51 nM.
For `COc1cc2c(cc1OC)C(CCc1cc(F)ccc1F)N(CCNC(=O)Nc1cc(C)nc3ccccc13)CC2` (stereo not shown) [CHEMBL1163360], the IC50 was 67 nM.
For `Cc1cc(NC(=O)NCCN2CCC(O)(Cc3ccccc3)CC2)c2ccccc2n1` [CHEMBL1164032], the IC50 is 3.6 nM.
On to `COc1cc(Br)c(S(=O)(=O)Nc2ccc(Cl)c(O[C@@H]3CCN(C)C3)c2)cc1OC` [CHEMBL2348501], for which the IC50 was 43 nM.
As for `COc1cc(Br)c([S+]([O-])Cc2ccc(Cl)c(O[C@@H]3CCN(C)C3)c2)cc1OC` (stereo partly shown) [CHEMBL2348504], the IC50 is 245 nM.
With `COc1cc(Br)c(SCc2ccc(Cl)c(O[C@@H]3CCN(C)C3)c2)cc1OC` [CHEMBL2348505], the IC50 is 440 nM.
With `COc1cc(Br)c(CNc2ccc(C(F)(F)F)c(O[C@H]3CCN(C)C3)c2)cc1OC` [CHEMBL2348511], the IC50 was 191 nM.
For `CN1CC[C@H](Oc2cc(NCc3ccccc3Br)ccc2C(F)(F)F)C1` [CHEMBL2348514], the IC50 is 821 nM.
Take `CN(C)CCOc1cc(NCc2ccccc2C(F)(F)F)ccc1Cl` [CHEMBL2348515]: the IC50 was 520 nM and 765 nM.
As to `COc1cccc(CNc2ccc(C(F)(F)F)c(O[C@H]3CCN(C)C3)c2)c1` [CHEMBL2348517], the IC50 was 691 nM.
For the compound `CN1CC[C@H](Oc2cc(NCc3c(Br)ccc4c3OCO4)ccc2C(F)(F)F)C1` [CHEMBL2348518], the IC50 was 620 nM.
As to `COc1cc(Br)c(S(=O)(=O)Nc2ccc(C(F)(F)F)c(OCCN(C)C)c2)cc1OC` [CHEMBL2348523], the IC50 is 100 nM.
Regarding `COc1cc(Br)c(S(=O)(=O)Nc2ccc(C(F)(F)F)c(OCCN3CCN(C)CC3)c2)cc1OC` [CHEMBL2348527], the IC50 was 840 nM.
Turning to `CC(C)[C@H](NC(=O)[C@@H]1CSSC[C@H](NC(=O)[C@H](C)N)C(=O)N[C@@H](Cc2ccccc2)C(=O)N[C@@H]2Cc3c([nH]c4ccccc34)CN(C2=O)[C@@H](CCCCN)C(=O)N[C@@H](Cc2ccc(O)cc2)C(=O)N1)C(=O)O` [CHEMBL3104461], the IC50 is 60 nM.
`CC(C)[C@H](NC(=O)[C@@H]1CSSC[C@H](NC(=O)[C@H](C)N)C(=O)N[C@@H](Cc2ccccc2)C(=O)N[C@@H](c2ccccc2)C(=O)N[C@@H](CCCCN)C(=O)N[C@@H](Cc2ccc(O)cc2)C(=O)N1)C(=O)O` [CHEMBL3104462]: the IC50 is 29.5 nM.
For the compound `CC(C)[C@H](NC(=O)[C@@H]1CSSC[C@H](NC(=O)[C@H](C)N)C(=O)N[C@@H](Cc2ccccc2)C(=O)N[C@H](c2ccccc2)C(=O)N[C@@H](CCCCN)C(=O)N[C@@H](Cc2ccc(O)cc2)C(=O)N1)C(=O)O` [CHEMBL3104463], the IC50 was 27.5 nM.
Take `CC(C)[C@H](NC(=O)[C@@H]1CSSC[C@H](NC(=O)[C@H](C)N)C(=O)N[C@@H](Cc2ccccc2)C(=O)N2CCc3ccccc3[C@H]2C(=O)N[C@@H](CCCCN)C(=O)N[C@@H](Cc2ccc(O)cc2)C(=O)N1)C(=O)O` [CHEMBL3104464]: the IC50 is 10 nM.

In another data set the target is T1, UT receptor. The note with it: agonist; Table S1 benchmarking ligands; ref ChEMBL database and others; cited from earlier work.
For `C[C@H](NC(=O)[C@H](CS)NC(=O)[C@H](Cc1ccc(O)cc1)NC(=O)[C@H](CCCCN)NC(=O)[C@H](Cc1c[nH]c2ccccc12)NC(=O)[C@H](Cc1ccccc1)NC(=O)[C@H](CS)NC(=O)[C@H](CC(=O)O)NC(=O)[C@H]1CCCN1C(=O)[C@@H](NC(=O)[C@@H](N)CCC(=O)O)[C@@H](C)O)C(=O)O` [CHEMBL2372907] (H-ET[dP]DCFWKYCA-OH), the EC50 is 3.2 nM.
For the compound `COc1ccc(/C=C/C2=NN(CCCCN)C(=O)N(Cc3ccc(-c4ccccc4)cc3)c3ccccc32)cc1` [CHEMBL4071437], the EC50 was 7.08 nM and 8.51 nM.
For the compound `NCCCN1N=C(CCc2nc3ccccc3s2)c2ccccc2N(Cc2ccc3ccccc3c2)C1=O` [CHEMBL4076150], the concentration for a half-maximal effect (EC50) is 6.17 nM and 10.7 nM.
`CC(C)[C@H](NC(=O)[C@@H]1CSSC[C@H](NC(=O)[C@@H](N)CC(=O)O)C(=O)N[C@@H](Cc2ccc(I)cc2)C(=O)N[C@@H](Cc2c[nH]c3ccccc23)C(=O)N[C@@H](CCCCN)C(=O)N[C@@H](Cc2ccc(O)cc2)C(=O)N1)C(=O)O` [CHEMBL4205274] (H-DC[Phe(4-I)]WKYCV-OH; disulfide 2-7): the EC50 was 191 nM.
